# Source: US9901577B2, “Oxoquinazolinyl-butanamide derivatives” (MERCK PATENT GMBH, priority 2013, dated 2018)
# Like-named read-outs stand apart in the source and are kept apart here.
# Assays:
# TNKS1 = target: T1, TNKS1 (Homo sapiens, UniProt O95271); assay: TNKS1 activity ELISA (autoparsylation assay); type: biochemical
# T1 construct: GST-tagged Tnks-1 (1023-1327 aa, prepared in-house); made in house
# Procedure: (§1) Description of the TNKS1 and TNKS2 ELISA Assay
# (§2) Biochemical Activity Testing of TNKS 1 and 2: Activity ELISA (Autoparsylation Assay)
# (§3) For analysis of autoparsylation activity of TNKS 1 and 2 an activity ELISA iss performed: In the first step GST tagged TNKS is captured on a Glutathione coated plate. Then the activity assay with biotinylated NAD is performed in the absence/presence of the compounds. During the enzymatic reaction GST tagged TNKS transfers biotinylated ADP-ribose to itself from biotinylated NAD as co-substrate. For the detection streptavidin-HRP conjugate is added that binds to the biotinylated TNKS and is thereby captured to the plates. The amount of biotinylated resp. autoparsylated TNKS is detected with a luminescence substrate for HRP. The level of the luminescence signal correlates directly with the amount of autoparsylated TNKS and therefore with activity of TNKS.
# (§4) The activity ELISA is performed in 384 well Glutathione coated microtiter plates (Express capture Glutathione coated plate, Biocat, Heidelberg, Germany). The plates are pre-equilibrated with PBS. […] The plates are washed 3 times with PBS-Tween-20. The wells are blocked by incubation at room temperature for 20 minutes with 50 μl blocking buffer (PBS, 0.05% Tween-20, 0.5% BSA). Afterwards the plates are washed 3 times with PBS-Tween-20. […] The reaction is stopped by 3 times washing with PBS-Tween-20. For the detection 50 μl of 20 ng/μl Streptavidin, HRP conjugate (MoBiTec, Göttingen, Germany) in PBS/0.05% Tween-20/0.01% BSA are added and the plates are incubated for 30 minutes at room temperature. After three times washing with PBS-Tween-20 50 μl of SuperSignal ELISA Femto Maximum sensitivity substrate solution (ThermoFisherScientific (Pierce), Bonn, Germany) are added. Following a 1 minute incubation at room temperature luminescence signals are measured with an Envision multimode reader (Perkin Elmer LAS Germany GmbH) at 700 nm. The full value used is the inhibitor-free reaction. […] The inhibitory values (IC50) are determined using either the program Symyx Assay Explorer® or Condosseo® from GeneData.
# PARP-1 = target: T2, PARP-1 (Homo sapiens, UniProt P09874); assay: PARP-1 autoparsylation assay (HTRF); type: biochemical; conditions: His-tagged Parp-1, autoparsylation
# T2 construct: purchased Enzo Life Sciences GmbH, Lörrach, Germany
# T2 sequence (P09874 whole entry): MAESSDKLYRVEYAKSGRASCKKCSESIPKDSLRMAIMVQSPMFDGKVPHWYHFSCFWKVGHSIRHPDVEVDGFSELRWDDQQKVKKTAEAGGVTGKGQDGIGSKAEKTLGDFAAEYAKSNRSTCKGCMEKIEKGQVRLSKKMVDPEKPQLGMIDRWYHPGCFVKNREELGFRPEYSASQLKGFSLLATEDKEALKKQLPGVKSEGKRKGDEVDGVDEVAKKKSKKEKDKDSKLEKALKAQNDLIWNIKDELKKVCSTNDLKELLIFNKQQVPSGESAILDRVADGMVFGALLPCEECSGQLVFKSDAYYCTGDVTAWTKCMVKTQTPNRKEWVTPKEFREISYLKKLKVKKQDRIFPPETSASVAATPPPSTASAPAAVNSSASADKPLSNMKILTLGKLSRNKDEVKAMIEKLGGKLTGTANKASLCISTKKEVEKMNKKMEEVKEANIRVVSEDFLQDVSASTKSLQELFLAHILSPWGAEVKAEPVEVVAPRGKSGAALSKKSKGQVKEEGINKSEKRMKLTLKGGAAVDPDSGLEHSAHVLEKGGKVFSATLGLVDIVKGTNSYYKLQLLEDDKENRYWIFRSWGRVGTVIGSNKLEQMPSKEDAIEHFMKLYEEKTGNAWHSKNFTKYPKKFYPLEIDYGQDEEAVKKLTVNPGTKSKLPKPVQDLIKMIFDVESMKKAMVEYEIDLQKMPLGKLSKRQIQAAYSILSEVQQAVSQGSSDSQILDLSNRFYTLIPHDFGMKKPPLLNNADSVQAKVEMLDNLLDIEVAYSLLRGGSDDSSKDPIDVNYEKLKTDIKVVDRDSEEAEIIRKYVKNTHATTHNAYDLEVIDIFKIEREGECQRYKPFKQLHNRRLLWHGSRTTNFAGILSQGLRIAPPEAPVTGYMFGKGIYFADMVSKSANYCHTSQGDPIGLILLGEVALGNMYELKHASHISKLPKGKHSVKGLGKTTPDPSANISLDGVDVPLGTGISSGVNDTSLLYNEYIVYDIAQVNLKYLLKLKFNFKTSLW
# Tankyrase [1] = system: T3, Tankyrase; assay: Measurement of cellular inhibition of Tankyrase (Axin2 level in DLD1 cells, Luminex based assay); type: cell-based; conditions: read-out: EC50 [M] TNKS cellular assay; DLD1 cells, Axin2 increase, 24 hours
# T3 construct: TNKS cellular assay; other: DLD1 cells, Axin2 increase, 24 hours
# Procedure: (§5) Measurement of Cellular Inhibition of Tankyrase
# (§6) Cells of the colon carcinoma cell line DLD1 are plated in 96 well plates with 1.5×10^4 cells per well. Next day, cells are treated with a serial dilution of test compound in seven steps as triplicates with a final DMSO concentration of 0.3%. […] The amount of isolated Axin2 protein is determined in a Luminex^200 machine (Luminex Corporation) according to the manufacturer's instruction by counting 100 events per well. […] As controls cells are treated with solvent alone (neutral control) and with a Tankyrase reference inhibitor IWR-2 (3E-06 M) which refers as control for maximum increase of Axin2. For analysis, the obtained data are normalized against the untreated solvent control and fitted for determination of the EC50 values using the Assay Explorer software (Accelrys).
# TNKS2 = target: T4, TNKS2 (Homo sapiens, UniProt Q9H2K2); assay: TNKS2 activity ELISA (autoparsylation assay); type: biochemical
# T4 construct: GST-tagged Tnks-2 (873-1166 aa, prepared in-house); made in house
# T4 sequence (Q9H2K2 873-1166): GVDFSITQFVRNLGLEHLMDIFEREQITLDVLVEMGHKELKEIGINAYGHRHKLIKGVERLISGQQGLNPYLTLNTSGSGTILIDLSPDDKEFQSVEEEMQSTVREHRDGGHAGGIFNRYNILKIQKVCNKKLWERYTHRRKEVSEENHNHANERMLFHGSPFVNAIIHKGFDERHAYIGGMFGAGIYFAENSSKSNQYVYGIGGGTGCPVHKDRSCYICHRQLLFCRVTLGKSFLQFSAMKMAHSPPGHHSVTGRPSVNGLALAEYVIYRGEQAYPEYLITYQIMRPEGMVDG
# Procedure: as §1, §2, §3, §4
# DLD-1-cancer cells = conditions: Huang et al., 2009; cited from earlier work
# β-catenin = conditions: by increasing the levels of AXIN1 and AXIN2 proteins; cited from earlier work
# Tankyrase [2] = assay: Measurement of cellular inhibition of Tankyrase (Axin2 level in DLD1 cells, Luminex based assay); type: cell-based; conditions: for EC50: prior art compounds
# Procedure: as §5, §6
# [3] = GST-tagged Tnks-1, read-out: IC50 [M] TNKS1 ELISA
# [4] = GST-tagged Tnks-2, read-out: IC50 [M] TNKS2 ELISA
# [5] = prior art compounds, read-out: IC50 (TNKS1)
# T1 sequence (O95271 1023-1327): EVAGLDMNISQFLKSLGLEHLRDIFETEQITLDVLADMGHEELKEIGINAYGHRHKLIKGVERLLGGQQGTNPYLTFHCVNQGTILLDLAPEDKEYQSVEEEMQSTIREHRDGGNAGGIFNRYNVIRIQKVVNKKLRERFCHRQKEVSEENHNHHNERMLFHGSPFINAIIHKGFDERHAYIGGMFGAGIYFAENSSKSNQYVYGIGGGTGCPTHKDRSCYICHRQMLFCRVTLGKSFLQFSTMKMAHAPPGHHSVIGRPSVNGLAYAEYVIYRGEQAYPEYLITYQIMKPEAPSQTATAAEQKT
SMILES,IC50 (TNKS1; [3]) [M],IC50 (PARP-1) [nM],EC50 (Tankyrase [1]) [M],IC50 (TNKS2; [4]) [M],also measured
"COc1ccc(C(=O)C2CCN(C(=O)CCCc3nc4ccc(F)cc4c(=O)[nH]3)CC2)cc1 [Compound A19, 6-Fluoro-2-{4-[4-(4-methoxy-benzoyl)-piperidin-1-yl]-4-oxo-butyl}-3H-quinazolin-4-one]",3.1e-10,710,8.3e-10,3.2e-10,
"COc1ccc(C(=O)C2CCN(C(=O)CCCc3nc4ccc(F)cc4c(=O)[nH]3)CC2)cc1F [Compound A20, 6-Fluoro-2-{4-[4-(3-fluoro-4-methoxy-benzoyl)-piperidin-1-yl]-4-oxo-butyl}-3H-quinazolin-4-one]",2.5e-10,960,3.4e-09,2.5e-10,
"COc1ccc(C(=O)C2CCN(C(=O)CCCc3nc4ccc(F)cc4c(=O)[nH]3)CC2)cn1 [Compound A21, 6-Fluoro-2-{4-[4-(6-methoxy-pyridine-3-carbonyl)-piperidin-1-yl]-4-oxo-butyl}-3H-quinazolin-4-one]",7.5e-10,550,7.8e-09,6.8e-10,
"N#Cc1ccc(OC2CCN(C(=O)CCCc3nc4ccc(F)cc4c(=O)[nH]3)CC2)cc1 [Compound A22, 4-{1-[4-(6-Fluoro-4-oxo-3,4-dihydro-quinazolin-2-yl)-butyryl]-piperidin-4-yloxy}-benzonitrile]",1.3e-07,640,5.6e-07,7.6e-08,
"COc1ccc(C(=O)C2CCN(C(=O)CCCc3nc4ccc(F)cc4c(=O)[nH]3)CC2)cc1C [Compound A24, 6-Fluoro-2-{4-[4-(4-methoxy-3-methyl-benzoyl)-piperidin-1-yl]-4-oxo-butyl}-3H-quinazolin-4-one]",1.6e-10,1000,1e-09,1.4e-10,
"COc1ccc(C(=O)C2CCN(C(=O)CCCc3nc4c(F)cccc4c(=O)[nH]3)CC2)cc1 [Compound A25, 8-Fluoro-2-{4-[4-(4-methoxy-benzoyl)-piperidin-1-yl]-4-oxo-butyl}-3H-quinazolin-4-one]",2.8e-10,2100,2.1e-09,2e-10,
"COc1ccc(C(=O)C2CCN(C(=O)CCCc3nc4c(F)cccc4c(=O)[nH]3)CC2)cc1F [Compound A26, 8-Fluoro-2-{4-[4-(3-fluoro-4-methoxy-benzoyl)-piperidin-1-yl]-4-oxo-butyl}-3H-quinazolin-4-one]",3e-10,1300,1.3e-09,2e-10,
"N#Cc1ccc(OC2CCN(C(=O)CCCc3nc4c(F)cccc4c(=O)[nH]3)CC2)cc1 [Compound A27, 4-{1-[4-(8-Fluoro-4-oxo-3,4-dihydro-quinazolin-2-yl)-butyryl]-piperidin-4-yloxy}-benzonitrile]",,1.3,4.4e-07,,IC50 (TNKS1): 1.5e-07 M; IC50 (TNKS2): 8.6e-08 M
"O=C(c1ccc(F)cc1)C1CCN(C(=O)CCCc2nc3c(F)cccc3c(=O)[nH]2)CC1 [Compound A28, 8-Fluoro-2-{4-[4-(4-fluoro-benzoyl)-piperidin-1-yl]-4-oxo-butyl}-3H-quinazolin-4-one]",8.7e-10,3300,4.2e-08,6.2e-10,
"COc1ccc(C(=O)C2CCN(C(=O)CCCc3nc4c(F)cccc4c(=O)[nH]3)CC2)cc1C [Compound A29, 8-Fluoro-2-{4-[4-(4-methoxy-3-methyl-benzoyl)-piperidin-1-yl]-4-oxo-butyl}-3H-quinazolin-4-one]",1.2e-10,2600,6.2e-10,< 1e-10,
"Nc1ncc(C2CCN(C(=O)CCCc3nc4ccccc4c(=O)[nH]3)CC2)cc1-c1ncccn1 [Compound A30, 2-[4-(6-Amino-5-pyrimidin-2-yl-3′,4′,5′,6-tetrahydro-2′H-[3,4]bipyridinyl-1′-yl)-4-oxo-butyl]-3H-quinazolin-4-one]",,670,1.2e-09,,IC50 (TNKS1): 4.1e-10 M; IC50 (TNKS2): 3e-10 M
"N#Cc1cc(C2CCN(C(=O)CCCc3nc4ccc(F)cc4c(=O)[nH]3)CC2)cnc1N [Compound A31, 6-Amino-1′-[4-(6-fluoro-4-oxo-3,4-dihydro-quinazolin-2-yl)-butyryl]-1′,2′,3′,4′,5′,6′-hexahydro-[3,4]bipyridinyl-5-carbonitrile]",2.1e-09,1400,2.9e-09,9.5e-10,
"Nc1ncc(C2CCN(C(=O)CCCc3nc4ccc(F)cc4c(=O)[nH]3)CC2)cc1-c1ncccn1 [Compound A32, 2-[4-(6-Amino-5-pyrimidin-2-yl-3′,4′,5′,6′-tetrahydro-2′H-[3,4]bipyridinyl-1′-yl)-4-oxo-butyl]-6-fluoro-3H-quinazolin-4-one]",3.2e-10,600,2.3e-09,3.4e-10,
"COc1ccc(C(=O)C2CCN(C(=O)CCCc3nc4c(F)cccc4c(=O)[nH]3)CC2)cn1 [Compound A33, 8-Fluoro-2-{4-[4-(6-methoxy-pyridine-3-carbonyl)-piperidin-1-yl]-4-oxo-butyl}-3H-quinazolin-4-one]",1.3e-09,5000,1.3e-08,5.2e-10,
"N#Cc1cc(C2CCN(C(=O)CCCc3nc4c(F)cccc4c(=O)[nH]3)CC2)cnc1N [Compound A34, 6-Amino-1′-[4-(8-fluoro-4-oxo-3,4-dihydro-quinazolin-2-yl)-butyryl]-1′,2′,3′,4′,5′,6′-hexahydro-[3,4]bipyridinyl-5-carbonitrile]",3.3e-09,2700,3.4e-08,1.6e-09,
"Nc1ncc(C2CCN(C(=O)CCCc3nc4c(F)cccc4c(=O)[nH]3)CC2)cc1-c1ncccn1 [Compound A35, 2-[4-(6-Amino-5-pyrimidin-2-yl-3′,4′,5′,6′-tetrahydro-2′H-[3,4]bipyridinyl-1′-yl)-4-oxo-butyl]-8-fluoro-3H-quinazolin-4-one]",4.9e-10,1400,1.8e-09,1.6e-10,
"N#Cc1cc(C2CCN(C(=O)CCCc3nc4ccccc4c(=O)[nH]3)CC2)cnc1N [Compound A36, 6-Amino-1′-[4-(4-oxo-3,4-dihydro-quinazolin-2-yl)-butyryl]-1′,2′,3′,4′,5′,6-hexahydro-[3,4]bipyridinyl-5-carbonitrile]",,1100,2e-08,,IC50 (TNKS1): 1.9e-09 M; IC50 (TNKS2): 1.1e-09 M
"Cn1cc(C(=O)C2CCN(C(=O)CCCc3nc4ccccc4c(=O)[nH]3)CC2)cn1 [Compound A41, 2-{4-[4-(1-Methyl-1H-pyrazole-4-carbonyl)-piperidin-1-yl]-4-oxo-butyl}-3H-quinazolin-4-one]",5.8e-10,2100,9e-09,3.3e-10,
Oc1nc(-c2ccc(C(F)(F)F)cc2)nc2c1CSCC2 [XAV939],,,,,growth of DLD-1-cancer cells (DLD-1-cancer cells): inhibits growth; Wnt-stimulated accumulation of β-catenin (β-catenin): blocked Wnt-stimulated accumulation of β-catenin
O=c1[nH]c(-c2ccc3c(c2)OCO3)nc2ccccc12 [reference compound],,,,,"IC50 (TNKS1; [5]): 5.9e-07 M; cellular assay: effect (Tankyrase [2]; at 30 μM, prior art compound): no effect; IC50 (TNKS2; prior art compounds, read-out: IC50 (TNKS2)): 6e-07 M"
COc1ccc(C(=O)C2CCN(CC(=O)N(Cc3nc4c(c(=O)[nH]3)COCC4)CC3CC3)CC2)cc1 [reference compound],,,,,IC50 (TNKS1; [5]): 2e-09 M; EC50 (Tankyrase [2]): 35 nM
COc1ccccc1NC(=O)c1ccc(NC(=O)CCc2nc3ccccc3c(=O)[nH]2)cc1 [reference compound],,,,,IC50 (TNKS1; [5]): 7.4e-09 M; EC50 (Tankyrase [2]): 320 nM
